Measured values as given in patent publication US20160038474A1, “COMPOSITIONS AND METHODS FOR THE MODULATION OF HEMOGLOBIN (S)” (GLOBAL BLOOD THERAPEUTICS, INC., priority 2013, published 2016).
Like-named read-outs stand apart in the source and are kept apart here.

What was measured:
[1] = Rat pharmacokinetics and blood/plasma partitioning (Example 1); assay type: in vivo, Rats (Sprague-Dawley); settings: for blood plasma ratio: whole blood and plasma, oral, 10 mg/kg
Description: This experiment was established and used in order to assess the pharmacokinetic (PK) properties of the compounds.
Sample collection and data analysis: Rats (Sprague-Dawley, male, 8-12[…] weeks old) were dosed with one of three compounds corresponding to compound 12, compound 22 or compound 23. The rats received oral (10 mg/kg) or intravenous (1 mg/kg) doses of the compound. Rats were fasted overnight before the experiments and provided with food after the 2 hour sampling time point.
Blood samples were collected at different time points. Blood was anti-coagulated by 3.2% TSC (trisodium citrate) and a portion was separated into plasma fraction by centrifugation and removal of blood cells. Plasma and lysed blood samples were anal) zed for drug concentration using LC-MS/MS. PK parameters were calculated by non compartmental analysis of the concentration-time profiles using WinNonLin software (Pharsight, Mountain View, Calif.). Apparent elimination half-life (t1/2) values were calculated as ln(2)/k. Area under the concentration-time curve (AUC) values were estimated using the linear trapezoidal method. AUClast values were calculated from the dosing time to the last measurable concentration. AUCinf values were calculated as the sum of the corresponding AUClast and the ratio of the last detectable concentration divided by k. Plasma clearance (Cl) is calculated from Dose/AUCinf. Volume of distribution at steady state (Vss) is calculated from Mean Residence Timeinf×Clss. Maximum concentration (Cmax) and time to Cmax (Tmax) was recorded as observed. The blood/plasma partitioning ratio was calculated at each experimental time point.

[2] = tested on: hemoglobin and human serum albumin; experiment: In vitro binding to hemoglobin and human serum albumin at physiologic ratio; settings: both proteins present in their respective physiologic ratio
Description: However, when the red blood cell compartment is considered, compound 12 unexpectedly partitions into blood to a far greater extent than compound 22 or compound 23. […] When the red blood cell/plasma ratio was measured at the peak concentration, compound 12 partitioned at a ratio of 70 to 1 into the erythrocytes attesting to its preferential partition into the compartment which contains the drug target hemoglobin. Supportive data was reported in an in vitro system measuring binding of compound 12 to hemoglobin and human serum albumin.

purified HbS = target: T1, purified HbS (Homo sapiens, UniProt P68871+P69905, E7V); experiment: HbS polymerization assay; assay type: biochemical; settings: for Polymerization DTcmpd-DTHbS: [HbS] 50 μM
T1 construct: HbS is purified by the CRO VIRUSYS, from blood obtained from homozygous sickle cell patients; tissue VIRUSYS (CRO that did the purification); host or cells: blood of homozygous sickle cell patients
Description: Polymerization assays are carried out in vitro using purified HbS exchanged into 1.8 M potassium phosphate buffer at pH 7.4. Using a slightly modified protocol (Antonini and Brunori, 1971). HbS is purified by the CRO VIRUSYS, from blood obtained from homozygous sickle cell patients through the Hemoglobinopathy Center at Children's Hospital Oakland Research Institute (CHORI) with Institutional Review Board approval. Compounds are prepared in 100% DMSO and a desired amount is added to 50 μM of purified HbS at a final DMSO concentration of 0.3%. Final potassium phosphate concentration is adjusted to 1.8 M using a combination of 2.5 M potassium phosphate stock solution and water at pH 7.4. The reaction mixture is incubated for an hour at 37° C. and then transferred into a 24-well plate for deoxygenation in a glove box containing 99.5% nitrogen and 0.5% oxygen. The 24-well plate is not covered and incubated at 4° C. on a plate cooler inside the glove box for one and a half hours. Fifty μl of the reaction mixture is transferred into a 96-well plate and the absorbance at 700 nm is measured every minute for one hour at 37° C. in a plate reader located inside the glove box. A plot of the absorbance against time is fitted using a Boltzman sigmoidal fit and the delay time (from zero to time at half Vmax) is measured. To compare and rank compounds, delay times are expressed as percent delay (% DT), which is defined as the difference in delay times for HbS/compound and HbS alone multiplied by 100 and divided by the delay time for HbS alone.
The ability of 5-HMF and compound 12 to delay HbS polymerization was evaluated as described in Example 2, above. Purified HbS (50 μM) was pre-incubated with 25 μM, 50 μM, or 100 μM of 5-HMF or compound 12, then passively de-oxygenated at 4° C. in 1.8 M potassium phosphate. Polymerization was induced via temperature jump from 4° C. to 37° C. Polymerization was quantified based on turbidity of the HbS solution under continued hypoxia.

HbS = HbS (Homo sapiens, UniProt P68871+P69905, E7V); experiment: 96-well oxygen dissociation assay (ODA); assay type: biochemical
Description: Results: Table 4 below lists the change in oxygen affinity (Δoxy state). After two hours of passive deoxygenation, compound 12, at an equimolar concentration to Hb, increased the Hb oxygen affinity by 6-fold.

purified Hb = purified Hb (Homo sapiens, UniProt P68871+P69905); experiment: TCS Hemox analyzer with purified Hb; assay type: biochemical; settings: purified Hb 25 μM
Description: The agents were then assayed in a TCS Hemox analyzer using purified Hb at 25 μM.

red blood cells = experiment: Sickling assay under hypoxia; assay type: cell-based; settings: for Sickling (% sickled): [HbS] ~1 mM (20% HCT), No Cmpd 85
Description: For sickling experiments, red blood cells were pre-incubated with compound 12 or 5-HMF, then subjected to hypoxia (pO2 of ˜3 mmHg) in a 37° C. humidified chamber for 0.5 hr and subsequently imaged using a light microscope. The percentage of sickled cells in each image was calculated using CellVigene software.

CC(C)n1nccc1-c1ncccc1COc1cccc(O)c1C=O [Compound 12, 2-hydroxy-6-[[2-(2-propan-2-ylpyrazol-3-yl)pyridin-3-yl]methoxy] benzaldehyde]
level of compound in blood versus plasma, overall exposure ([1]; dosed orally): 55 fold | relative proportion in blood (as compared to plasma) at peak concentration (Cmax) ([1]; dosed orally): 21 fold | Vd ([1]; male, Sprague-Dawley, in vivo, oral 10 mg/kg or intravenous 1 mg/kg, read-out: Vss): 0.14 L/kg | bioavailability ([1]; male, Sprague-Dawley, in vivo, oral 10 mg/kg, intravenous 1 mg/kg): 68.8% | clearance ([1]; male, Sprague-Dawley, plasma, oral 10 mg/kg or intravenous 1 mg/kg): 0.11 mL/min/kg | blood plasma ratio ([1]; male, Sprague-Dawley, read-out: Blood/plasma (Ratio of exposure AUCINF)): 55 | blood plasma ratio ([1]; male, Sprague-Dawley, read-out: Blood/plasma (Ratio of peak concentration)): 21 | red blood cell/plasma ratio at the peak concentration ([1]; ratio to 1 into the erythrocytes): 70 | binding preference, hemoglobin versus human serum albumin [2]: preferentially binding to hemoglobin | Polymerization % DT (class) (purified HbS; 75 μM compound, 50 μM HbS): †† (activity >80% but ≦120%) | Polymerization % DT (percent delay) (purified HbS; 75 μM compound, 50 μM HbS): 108.56% | HbS polymerization delay (in words) (purified HbS; HbS 50 μM, 25, 50 or 100 μM compound): delayed HbS polymerization in a dose-dependent manner | Polymerization DTcmpd-DTHbS (purified HbS; [Cmpd] 25 μM): 3.9 min | Polymerization DTcmpd-DTHbS (purified HbS; [Cmpd] 50 μM): 12.8 min | Polymerization DTcmpd-DTHbS (purified HbS; [Cmpd] 100 μM): 22.9 min | potency at increasing the oxygen affinity of HbS compared with 5-HMF (HbS; 96-well ODA): more potent at increasing the oxygen affinity of HbS than 5-hydroxy furfural | Hb in ODA (Δoxy state) (HbS; [Hb] 3 μM, [cmp] 3 μM): 56 | increase of Hb oxygen affinity (HbS; equimolar concentration to Hb, after two hours of passive deoxygenation): 6 fold | improvement of oxygen affinity versus Hb control (purified Hb; compound:Hb ratio of 1:3): 15% | improvement of oxygen affinity versus Hb control (purified Hb; stoichiometric concentrations): greater than 70% | Sickling (% sickled) (red blood cells; [Cmpd] 1 mM): 41% | Sickling (% sickled) (red blood cells; [Cmpd] 2 mM): 33% | Sickling (% sickled) (red blood cells; [Cmpd] 5 mM): 28% | sickling of RBCs (in words) (red blood cells; hypoxia 0.5 hr, 37° C.): prevented sickling of RBCs under hypoxia
